Results from ChEMBL document CHEMBL5325395, “Design, synthesis and anti-ovarian cancer activities of thieno[2,3-d]pyrimidine based chimeric BRD4 inhibitor/nitric oxide-donator” (Eur J Med Chem, 2023).
The source made the active and inactive calls. The rule behind the calls is not given here.

Legend:
[1] = tested on: SK-OV-3; assay: Induction of apoptosis in human SK-OV-3 cells assessed as upregulation of Beclin1 protein expression at 1 to 2 uM incubated for 24 hrs by Western blotting analysis; format: functional, cell-based; conditions: dose 1-2 µM
[2] = molecular target: Bromodomain testis-specific protein (Homo sapiens, UniProt Q58F21); assay: Inhibition of BRDT bromodomain 1 (unknown origin) by Alphascreen based method
[3] = Induction of NO release in phosphate buffer at 1 hr by Griess reagent based spectrophotometer analysis; format: functional
[4] = tested on: SK-OV-3; assay: Induction of autophagy in human SK-OV-3 cells assessed as reduction in LAMP1 labeled lysosomes at 2 umol/L incubated for 24 hrs by immunofluorescence analysis; format: functional, cell-based; conditions: dose 2.0 µmol/L
[5] = tested on: SK-OV-3; assay: Induction of apoptosis in human SK-OV-3 cells assessed as viable cells at 2 uM incubated for 24 hrs by Annexin V and PI staining based flow cytometry analysis (reference value: 99.8 %); format: functional; conditions: read-out: Activity
[6] = Toxicity in BALB/c mouse xenografted with human SK-OV-3 cells assessed as change in body weight at 30 mg/kg, ip administered for 19 days; format: organism-based; conditions: in vivo, 456 h, time 19 day
[7] = molecular target: T1, Bromodomain-containing protein 3 (Homo sapiens, UniProt Q15059); assay: Inhibition of BRD3 bromodomain 1 (unknown origin) by Alphascreen based method
T1 sequence (Q15059 whole entry): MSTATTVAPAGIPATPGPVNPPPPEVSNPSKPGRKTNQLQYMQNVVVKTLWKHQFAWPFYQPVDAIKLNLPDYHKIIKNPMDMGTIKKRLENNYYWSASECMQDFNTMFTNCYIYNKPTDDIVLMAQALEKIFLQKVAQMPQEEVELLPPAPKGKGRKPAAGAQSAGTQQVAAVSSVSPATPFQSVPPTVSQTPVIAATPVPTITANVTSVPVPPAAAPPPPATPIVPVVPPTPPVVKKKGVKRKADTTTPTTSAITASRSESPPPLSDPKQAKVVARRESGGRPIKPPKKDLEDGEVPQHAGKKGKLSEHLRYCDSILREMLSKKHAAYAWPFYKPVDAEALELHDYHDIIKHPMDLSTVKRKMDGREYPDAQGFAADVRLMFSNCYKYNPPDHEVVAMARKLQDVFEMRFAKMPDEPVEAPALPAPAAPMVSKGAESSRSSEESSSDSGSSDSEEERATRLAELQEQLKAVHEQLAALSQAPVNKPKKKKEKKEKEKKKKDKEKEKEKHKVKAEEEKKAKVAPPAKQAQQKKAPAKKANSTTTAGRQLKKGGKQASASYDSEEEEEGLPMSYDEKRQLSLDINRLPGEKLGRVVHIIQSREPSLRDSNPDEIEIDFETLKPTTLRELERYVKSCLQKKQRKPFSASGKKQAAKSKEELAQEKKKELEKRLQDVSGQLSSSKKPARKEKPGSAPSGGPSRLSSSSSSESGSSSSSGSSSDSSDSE

[8] = Induction of NO release in phosphate buffer at 3 hrs by Griess reagent based spectrophotometer analysis; format: functional
[9] = tested on: SK-OV-3; assay: Induction of autophagy in human SK-OV-3 cells assessed as GFP-LC3 aggregation incubated for 24 hrs by confocal fluorescence microscopy analysis; format: functional, cell-based
[10] = tested on: OVCAR-3; assay: Antiproliferative activity against human OVCAR-3 cells assessed as reduction in cell viability incubated for 24 hrs by CCK8 assay; format: functional, cell-based; conditions: OVCAR-3, 24 h
[11] = tested on: SK-OV-3; assay: Induction of apoptosis in human SK-OV-3 cells assessed as necrotic cells at 1 uM incubated for 24 hrs by Annexin V and PI staining based flow cytometry analysis (reference value: 0.15 %); format: functional
[12] = molecular target: T2, Bromodomain-containing protein 2 (Homo sapiens, UniProt P25440); assay: Inhibition of BRD2 bromodomain 1 (unknown origin) by Alphascreen based method
T2 sequence (P25440 whole entry): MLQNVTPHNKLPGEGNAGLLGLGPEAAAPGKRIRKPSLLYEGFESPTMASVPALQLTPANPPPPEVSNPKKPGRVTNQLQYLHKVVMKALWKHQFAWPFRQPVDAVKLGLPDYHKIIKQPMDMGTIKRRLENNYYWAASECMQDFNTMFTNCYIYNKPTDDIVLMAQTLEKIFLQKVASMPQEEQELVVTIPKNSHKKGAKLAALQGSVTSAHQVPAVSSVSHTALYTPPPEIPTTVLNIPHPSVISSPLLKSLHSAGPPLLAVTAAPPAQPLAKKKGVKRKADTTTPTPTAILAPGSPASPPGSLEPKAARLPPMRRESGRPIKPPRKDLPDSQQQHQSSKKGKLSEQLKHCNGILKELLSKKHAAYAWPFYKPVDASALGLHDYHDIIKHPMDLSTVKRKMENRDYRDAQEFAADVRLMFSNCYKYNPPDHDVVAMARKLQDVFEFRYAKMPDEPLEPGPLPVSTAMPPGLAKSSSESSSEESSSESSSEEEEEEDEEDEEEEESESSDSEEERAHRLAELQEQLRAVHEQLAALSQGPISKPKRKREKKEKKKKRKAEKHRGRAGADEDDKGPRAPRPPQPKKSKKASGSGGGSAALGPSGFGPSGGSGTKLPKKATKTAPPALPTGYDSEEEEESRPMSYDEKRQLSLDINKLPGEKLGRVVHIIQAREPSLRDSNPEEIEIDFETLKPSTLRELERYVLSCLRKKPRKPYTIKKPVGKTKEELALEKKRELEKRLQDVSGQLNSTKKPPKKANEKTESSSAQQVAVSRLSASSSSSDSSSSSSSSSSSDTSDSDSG

[13] = tested on: SK-OV-3; assay: Induction of apoptosis in human SK-OV-3 cells assessed as upregulation of cleaved caspase 3 protein expression at 1 to 2 uM incubated for 24 hrs by Western blotting analysis; format: functional, cell-based; conditions: dose 1-2 µM
[14] = molecular target: T3, Bromodomain-containing protein 4 (Homo sapiens, UniProt O60885); assay: Binding affinity to BRD4 BD1 (unknown origin) by thermal denaturation assay
[15] = molecular target: T2, Bromodomain-containing protein 2; assay: Binding affinity to BRD2 BD2 (unknown origin) by thermal denaturation assay
[16] = Induction of NO release in phosphate buffer at 6 hrs by Griess reagent based spectrophotometer analysis; format: functional
[17] = tested on: ES-2; assay: Antiproliferative activity against human ES2 cells assessed as reduction in cell viability incubated for 24 hrs by CCK8 assay; format: functional, cell-based; conditions: ES-2, 24 h
[18] = tested on: SK-OV-3; assay: Induction of apoptosis in human SK-OV-3 cells assessed as late apoptotic cells at 1 uM incubated for 24 hrs by Annexin V and PI staining based flow cytometry analysis (reference value: 0 %); format: functional
[19] = molecular target: T3, Bromodomain-containing protein 4; assay: Inhibition of BRD4 in human SK-OV-3 cells assessed as reduction in BRD4 protein expression by Western blot analysis; format: cell-based
[20] = tested on: A2780; assay: Antiproliferative activity against human A2780 cells assessed as reduction in cell viability incubated for 24 hrs by CCK8 assay; format: functional, cell-based; conditions: A2780, 24 h
[21] = tested on: SK-OV-3; assay: Induction of apoptosis in human SK-OV-3 cells assessed as late apoptotic cells at 2 uM incubated for 24 hrs by Annexin V and PI staining based flow cytometry analysis (reference value: 0 %); format: functional
[22] = tested on: SK-OV-3; assay: Induction of autophagy in human SK-OV-3 cells assessed as GFP-LC3 aggregation incubated for 24 hrs by transmission electron microscopy analysis; format: functional, cell-based
[23] = tested on: SK-OV-3; assay: Induction of apoptosis in human SK-OV-3 cells assessed as upregulation of p62/SQSTM1 protein expression at 1 to 2 uM incubated for 24 hrs by Western blotting analysis; format: functional, cell-based; conditions: dose 1-2 µM
[24] = tested on: SK-OV-3; assay: Induction of apoptosis in human SK-OV-3 cells assessed as early apoptotic cells at 2 uM incubated for 24 hrs by Annexin V and PI staining based flow cytometry analysis (reference value: 0.020 %); format: functional
[25] = Induction of NO release in phosphate buffer at 0.5 hrs by Griess reagent based spectrophotometer analysis; format: functional
[26] = tested on: SK-OV-3; assay: Induction of apoptosis in human SK-OV-3 cells assessed as early apoptotic cells at 1 uM incubated for 24 hrs by Annexin V and PI staining based flow cytometry analysis (reference value: 0.020 %); format: functional
[27] = tested on: SK-OV-3; assay: Induction of autophagy in human SK-OV-3 cells assessed as appearance of autophagic vacuoles incubated for 24 hrs by transmission electron microscopy analysis; format: functional, cell-based
[28] = tested on: SK-OV-3; assay: Induction of autophagy in human SK-OV-3 cells assessed as reduction in GFP-LC3 labeled lysosomes at 2 umol/L incubated for 24 hrs by immunofluorescence analysis; format: functional, cell-based; conditions: dose 2.0 µmol/L
[29] = molecular target: T3, Bromodomain-containing protein 4; assay: Inhibition of BRD4 bromodomain 1 (unknown origin) by Alphascreen based method
[30] = molecular target: T3, Bromodomain-containing protein 4; assay: Binding affinity to BRD4 BD2 (unknown origin) by thermal denaturation assay
[31] = tested on: SK-OV-3; assay: Induction of apoptosis in human SK-OV-3 cells assessed as upregulation of LC3II/I protein expression at 1 to 2 uM incubated for 24 hrs by Western blotting analysis; format: functional, cell-based; conditions: dose 1-2 µM
[32] = tested on: SK-OV-3; assay: Induction of autophagy in human SK-OV-3 cells assessed as increase in autophagosomes at 2 umol/L incubated for 24 hrs by immunofluorescence analysis; format: functional, cell-based; conditions: dose 2.0 µmol/L
[33] = tested on: SK-OV-3; assay: Induction of apoptosis in human SK-OV-3 cells assessed as necrotic cells at 2 uM incubated for 24 hrs by Annexin V and PI staining based flow cytometry analysis (reference value: 0.15 %); format: functional
[34] = tested on: SK-OV-3; assay: Induction of apoptosis in human SK-OV-3 cells assessed as upregulation of cytochrome-C protein expression at 1 to 2 uM incubated for 24 hrs by Western blotting analysis; format: functional, cell-based; conditions: dose 1-2 µM
[35] = Induction of NO release in phosphate buffer at 4 hrs by Griess reagent based spectrophotometer analysis; format: functional
[36] = tested on: SK-OV-3; assay: Antitumor activity against human SK-OV-3 cells xenografted in BALB/c nude mouse assessed as reduction in Ki-67 expression at 30 mg/kg, ip administered for 19 days by immunohistochemical analysis; format: functional, organism-based; conditions: time 19.0 day
[37] = tested on: SK-OV-3; assay: Induction of autophagy in human SK-OV-3 cells assessed as appearance of autophagic vacuoles incubated for 24 hrs by confocal fluorescence microscopy analysis; format: functional, cell-based
[38] = molecular target: T3, Bromodomain-containing protein 4; assay: Inhibition of BRD4 (unknown origin)
[39] = tested on: SW626; assay: Antiproliferative activity against human SW626 cells assessed as reduction in cell viability incubated for 24 hrs by CCK8 assay; format: functional, cell-based; conditions: SW626, 24 h
[40] = tested on: SK-OV-3; assay: Antitumor activity against human SK-OV-3 cells xenografted in BALB/c nude mouse assessed as increase in tumor cell apoptosis at 30 mg/kg, ip administered for 19 days by TUNEL staining based analysis; format: functional, organism-based; conditions: time 19.0 day
[41] = molecular target: T2, Bromodomain-containing protein 2; assay: Binding affinity to BRD2 BD1 (unknown origin) by thermal denaturation assay
[42] = tested on: Mus musculus; assay: In vivo inhibition of BRD4 in BALB/c nude mouse xenografted with human SK-OV-3 cells assessed as reduction in c-Myc expression at 30 mg/kg, ip administered for 19 days by immunohistochemical analysis; format: functional, organism-based; conditions: time 19.0 day
[43] = tested on: SK-OV-3; assay: Induction of apoptosis in human SK-OV-3 cells assessed as downregulation of Bcl-2 protein expression at 1 to 2 uM incubated for 24 hrs by Western blotting analysis; format: functional, cell-based; conditions: dose 1-2 µM
[44] = tested on: SK-OV-3; assay: Antiproliferative activity against human SK-OV-3 cells assessed as reduction in cell viability incubated for 24 hrs by CCK8 assay; format: functional, cell-based; conditions: SK-OV-3, 24 h
[45] = molecular target: T3, Bromodomain-containing protein 4; assay: Inhibition of BRD4 in human SK-OV-3 cells assessed as reduction in c-Myc protein expression by Western blot analysis; format: cell-based
[46] = Induction of NO release in phosphate buffer at 24 hrs by Griess reagent based spectrophotometer analysis; format: functional
[47] = tested on: SK-OV-3; assay: Induction of apoptosis in human SK-OV-3 cells assessed as viable cells at 1 uM incubated for 24 hrs by Annexin V and PI staining based flow cytometry analysis (reference value: 99.8 %); format: functional; conditions: read-out: Activity
[48] = tested on: SK-OV-3; assay: Antitumor activity against human SK-OV-3 cells xenografted in Balb/c nude mouse assessed as tumor growth inhibition at 30 mg/kg, ip administered for 19 days; format: functional, organism-based; conditions: time 19.0 day
[49] = molecular target: T2, Bromodomain-containing protein 2; assay: Inhibition of BRD2 bromodomain 2 (unknown origin) by Alphascreen based method
[50] = Induction of NO release in phosphate buffer at 2 hrs by Griess reagent based spectrophotometer analysis; format: functional
[51] = molecular target: T1, Bromodomain-containing protein 3; assay: Inhibition of BRD3 bromodomain 2 (unknown origin) by Alphascreen based method
[52] = molecular target: T3, Bromodomain-containing protein 4; assay: Inhibition of BRD4 bromodomain 2 (unknown origin) by Alphascreen based method

Cc1cc(-c2nc3sc4c(c3c(=O)[nH]2)CCN(C)C4)cc(C)c1OCC(=O)OCc1c(-c2ccccc2)no[n+]1[O-]
Activity [1]: Active | IC50 [2]: > 20 µM | Activity [3]: 0.055 µmol/L | Activity [4]: Active | viability at 2 µM [5]: 85.1% | Activity [6]: Non-Toxic | IC50 [7]: > 20 µM | Activity [8]: 0.072 µmol/L | Activity [9]: Active | IC50 [10]: 2.69 µM | Activity [11]: 1.2% | IC50 [12]: 15.9 µM | Activity [13]: Active | Kd [14]: 0.419 µM | Kd [15]: 17.5 µM | Activity [16]: 0.111 µmol/L | IC50 [17]: 3.44 µM | Activity [18]: 4.5% | inhibition [19]: Active | IC50 [20]: 3.44 µM | Activity [21]: 5.21% | Activity [22]: Active | Activity [23]: Active | Activity [24]: 8.84% | Activity [25]: 0.061 µmol/L | Activity [26]: 6.15% | Activity [27]: Active | Activity [28]: Active | IC50 [29]: 0.82 µM | Kd [30]: 0.686 µM | Activity [31]: Active | Activity [32]: Active | Activity [33]: 1.03% | Activity [34]: Active | Activity [35]: 0.095 µmol/L | Activity [36]: Active | Activity [37]: Active | IC50 [38]: 0.82 µM | IC50 [39]: 8.47 µM | Activity [40]: Active | Kd [41]: 7.43 µM | inhibition [42]: Active | Activity [43]: Active | IC50 [44]: 1.38 µM | inhibition [45]: Active | Activity [46]: 0.258 µmol/L | viability at 1 µM [47]: 88.9% | Activity [48]: Active | IC50 [49]: > 20 µM | Activity [50]: 0.054 µmol/L | IC50 [51]: > 20 µM | IC50 [52]: 1.94 µM
